These results are taken from PubChem BioAssay AID330 (DTP/NCI, 2004).

Where “and” joins values, the source holds several entries; their conditions need not be identical. Equal values may be shown once. Toxic doses and inconclusive results are not listed.

The experiment relates to P388 leukemia ip, CD2F1 mice, survival T/C. Kind of experiment: NCI In Vivo Anticancer Drug Screen. Data for tumor model P388 Leukemia (intraperitoneal) in CD2F1 (CDF1) mice. The following applies: endpoint: median survival time, higher = longer survival. The method in brief:
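Mice carrying the transplanted tumor received test compound or vehicle. Survival was recorded in each group, and the value is the treated-group measurement divided by that of the vehicle-treated control group.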

Where [1] appears, read: dose: 12.5 mg/kg/injection, schedule: Q01DX009 (ip), vehicle: saline.
[2] abbreviates: dose: 25.0 mg/kg/injection, schedule: Q01DX009 (ip), vehicle: saline.
[3] abbreviates: dose: 50.0 mg/kg/injection, schedule: Q01DX009 (ip), vehicle: saline.
[4] abbreviates: dose: 100.0 mg/kg/injection, schedule: Q01DX009 (ip), vehicle: saline.
Where [5] appears, read: dose: 200.0 mg/kg/injection, schedule: Q01DX009 (ip), vehicle: saline.
Setting [6] is: dose: 60.0 mg/kg/injection, schedule: Q01DX005 (ip), vehicle: saline with Tween-80.
[7] abbreviates: dose: 120.0 mg/kg/injection, schedule: Q01DX005 (ip), vehicle: saline with Tween-80.
Setting [8] is: dose: 240.0 mg/kg/injection, schedule: Q01DX005 (ip), vehicle: saline with Tween-80.
The mark [9] stands for this setting: dose: 50.0 mg/kg/injection, schedule: Q01DX009 (ip), vehicle: saline with Tween-80.
The mark [10] stands for this setting: dose: 100.0 mg/kg/injection, schedule: Q01DX009 (ip), vehicle: saline with Tween-80.
Setting [11] is: dose: 6.25 mg/kg/injection, schedule: Q01DX009 (ip), vehicle: saline.
Setting [12] is: dose: 50.0 mg/kg/injection, schedule: Q01DX005 (ip), vehicle: saline with Tween-80.
Where [13] appears, read: dose: 200.0 mg/kg/injection, schedule: Q01DX009 (ip), vehicle: saline with Tween-80.

Turning to `Nc1nc(N)c2c(ccc3c2ccn3Cc2cccc([N+](=O)[O-])c2)n1`, the T/C (dose: 1.56 mg/kg/injection, schedule: Q01DX005 (ip), vehicle: saline with Tween-80) was 100 % of control and 119 % of control; the T/C (dose: 3.12 mg/kg/injection, schedule: Q01DX005 (ip), vehicle: saline with Tween-80) is 110 % of control.
Consider `OCCN(CCO)CC(O)COc1cccc2ccccc12` (centres undefined), for which the T/C is 98 % of control and 116 % of control under setting [1]; 110 % of control and 96 % of control under setting [2]; 103 % of control and 107 % of control under setting [3]; 104 % of control and 97 % of control under setting [4]; 110 % of control and 115 % of control under setting [5].
In the case of `N#CC(C(=O)C(=O)NC1C2CC3CC(C2)CC1C3)c1c(Cl)cccc1Cl` (centres undefined), the T/C by setting is: under setting [6], 104 % of control; under setting [7], 106 % of control; under setting [8], 100 % of control.
Regarding `CC(=O)CC(=O)OC(C)(C)C#CC(C)(C)OC(=O)CC(C)=O`, the T/C is, setting by setting: under setting [3], 102 % of control; under setting [4], 103 % of control; under setting [5], 100 % of control.
`c1ccc2c(c1)[nH]c1nc3ccncc3nc12`: the T/C is, setting by setting: under setting [9], 90 % of control; under setting [10], 90 % of control.
Take `COC(=O)C(CNc1ccc(S(N)(=O)=O)cc1)=[N+]=[N-]`: the T/C was 98 % of control under setting [11]; 97 % of control under setting [1]; 91 % of control under setting [2]; 100 % of control under setting [4]; 99 % of control under setting [5].
Take `O=C(O)C(S)Cc1cnc[nH]1` (centres undefined): the T/C reads like this: (dose: 100.0 mg/kg/injection, schedule: Q04DX002 (ip), vehicle: saline) 99 % of control; (dose: 200.0 mg/kg/injection, schedule: Q04DX002 (ip), vehicle: saline) 99 % of control.
For `O=C1NNCc2c1oc1ccccc21`, the T/C (dose: 6.25 mg/kg/injection, schedule: Q01DX009 (ip), vehicle: saline with Tween-80) is 95 % of control; the T/C (dose: 12.5 mg/kg/injection, schedule: Q01DX009 (ip), vehicle: saline with Tween-80) is 92 % of control; the T/C (dose: 25.0 mg/kg/injection, schedule: Q01DX009 (ip), vehicle: saline with Tween-80) is 99 % of control.
As for `O=NNc1cnccn1`, the T/C is 100 % of control (dose: 1.56 mg/kg/injection, schedule: Q01DX009 (ip), vehicle: water); 109 % of control and 100 % of control (dose: 3.12 mg/kg/injection, schedule: Q01DX009 (ip), vehicle: water); 110 % of control and 112 % of control and 97 % of control (dose: 6.25 mg/kg/injection, schedule: Q01DX009 (ip), vehicle: water); 116 % of control and 122 % of control (dose: 12.5 mg/kg/injection, schedule: Q01DX009 (ip), vehicle: water); 150 % of control (dose: 25.0 mg/kg/injection, schedule: Q01DX009 (ip), vehicle: water); 161 % of control (dose: 25.3 mg/kg/injection, schedule: Q01DX009 (ip), vehicle: other). For the same compound, the T/C by setting is: (dose: 25.3 mg/kg/injection, schedule: Q01DX009 (ip), vehicle: water) 170 % of control; (dose: 37.5 mg/kg/injection, schedule: Q01DX009 (ip), vehicle: water) 224 % of control and 245 % of control and 271 % of control; (dose: 38.0 mg/kg/injection, schedule: Q01DX009 (ip), vehicle: other) 225 % of control; (dose: 50.0 mg/kg/injection, schedule: Q01DX009 (ip), vehicle: water) 118 % of control [middle of 5 runs]; (dose: 57.0 mg/kg/injection, schedule: Q01DX009 (ip), vehicle: water) 112 % of control.
On to `CC1(C)OCC(C2NC2C2COC(C)(C)O2)O1` (centres undefined), for which the T/C reads like this: under setting [3], 108 % of control; under setting [4], 110 % of control; under setting [5], 104 % of control.
Turning to `CCOC(=O)C1=C(Nc2ccc([N+](=O)[O-])cc2)CCCC1`, the T/C is, setting by setting: (dose: 1.56 mg/kg/injection, schedule: Q01DX009 (ip), vehicle: saline) 93 % of control; (dose: 3.12 mg/kg/injection, schedule: Q01DX009 (ip), vehicle: saline) 95 % of control; under setting [11], 95 % of control.
In the case of `NC(=S)N/N=C/c1ccc(C(F)(F)F)cn1`, the T/C (dose: 3.8 mg/kg/injection, schedule: Q01DX009 (ip), vehicle: Klucel (hydroxypropylcellulose) (HPC)) was 96 % of control; the T/C (dose: 5.8 mg/kg/injection, schedule: Q01DX009 (ip), vehicle: Klucel (hydroxypropylcellulose) (HPC)) was 93 % of control; the T/C (dose: 6.0 mg/kg/injection, schedule: Q01DX009 (ip), vehicle: Klucel (hydroxypropylcellulose) (HPC)) was 107 % of control; the T/C (dose: 8.8 mg/kg/injection, schedule: Q01DX009 (ip), vehicle: Klucel (hydroxypropylcellulose) (HPC)) is 93 % of control; the T/C (dose: 8.9 mg/kg/injection, schedule: Q01DX009 (ip), vehicle: Klucel (hydroxypropylcellulose) (HPC)) was 114 % of control; the T/C (dose: 13.3 mg/kg/injection, schedule: Q01DX009 (ip), vehicle: Klucel (hydroxypropylcellulose) (HPC)) is 114 % of control and 93 % of control. For the same compound, the T/C was 101 % of control and 121 % of control (dose: 20.0 mg/kg/injection, schedule: Q01DX009 (ip), vehicle: Klucel (hydroxypropylcellulose) (HPC)); 114 % of control (dose: 30.0 mg/kg/injection, schedule: Q01DX009 (ip), vehicle: Klucel (hydroxypropylcellulose) (HPC)).
Take `N#Cc1c(NC(=O)Nc2ccc(F)cc2F)sc(=S)c2c1CCCC2`: the T/C is 100 % of control under setting [9] and 99 % of control under setting [10].
Regarding `C[Si](C)(C)C1=CC[C@H]2C(=O)N(c3ccccc3)C(=O)[C@H]2C1=O`, the T/C reads like this: under setting [12], 107 % of control; (dose: 100.0 mg/kg/injection, schedule: Q01DX005 (ip), vehicle: saline with Tween-80) 118 % of control; (dose: 200.0 mg/kg/injection, schedule: Q01DX005 (ip), vehicle: saline with Tween-80) 111 % of control.
On to `CSC#CC(Sc1c(Cl)c(Cl)c(Cl)c(Cl)c1Cl)=C(Sc1c(Cl)c(Cl)c(Cl)c(Cl)c1Cl)Sc1c(Cl)c(Cl)c(Cl)c(Cl)c1Cl`, for which the T/C by setting is: under setting [9], 99 % of control; under setting [10], 93 % of control; under setting [13], 92 % of control.
Turning to `COc1cccc(N2CCN(CC(O)COc3cc4c(c5c3CCCC5)CCCC4)CC2)c1` (centres undefined), the T/C is 93 % of control (dose: 100.0 mg/kg/injection, schedule: Q04DX003 (ip), vehicle: Klucel (hydroxypropylcellulose) (HPC)); 92 % of control (dose: 200.0 mg/kg/injection, schedule: Q04DX003 (ip), vehicle: Klucel (hydroxypropylcellulose) (HPC)); 91 % of control (dose: 400.0 mg/kg/injection, schedule: Q04DX003 (ip), vehicle: Klucel (hydroxypropylcellulose) (HPC)).
As to `CCOC(=O)c1ccc2c(c1)NCc1cccc(OC)c1O2`, the T/C (dose: 60.0 mg/kg/injection, schedule: Q01DX005 (ip), vehicle: Klucel (hydroxypropylcellulose) (HPC)) is 100 % of control; the T/C (dose: 120.0 mg/kg/injection, schedule: Q01DX005 (ip), vehicle: Klucel (hydroxypropylcellulose) (HPC)) is 103 % of control; the T/C (dose: 240.0 mg/kg/injection, schedule: Q01DX005 (ip), vehicle: Klucel (hydroxypropylcellulose) (HPC)) was 100 % of control.
For `Nc1c2c(=O)[nH]c(O)cc2nn1-c1ccccc1`, the T/C is, setting by setting: (dose: 12.5 mg/kg/injection, schedule: Q01DX005 (ip), vehicle: saline with Tween-80) 100 % of control; (dose: 25.0 mg/kg/injection, schedule: Q01DX005 (ip), vehicle: saline with Tween-80) 96 % of control; under setting [12], 100 % of control and 97 % of control.
Take `CCC1(CN(C)C)C(=O)N(C)C(=O)N(C2CCCCC2)C1=O` (centres undefined): the T/C is 96 % of control under setting [9], 102 % of control under setting [10] and 107 % of control under setting [13].
For `O=C1c2cccc3cc([N+](=O)[O-])cc(c23)C(=O)N1CCN1CCN(CCN2C(=O)c3cccc4cc([N+](=O)[O-])cc(c34)C2=O)CC1`, the T/C by setting is: (dose: 100.0 mg/kg/injection, schedule: Q04DX002 (ip), vehicle: saline with Tween-80) 95 % of control; (dose: 200.0 mg/kg/injection, schedule: Q04DX002 (ip), vehicle: saline with Tween-80) 98 % of control; (dose: 400.0 mg/kg/injection, schedule: Q04DX002 (ip), vehicle: saline with Tween-80) 90 % of control.
Turning to `[O-]/[N+](=C\c1ccc(Cl)cc1Cl)c1ccccc1`, the T/C (dose: 50.0 mg/kg/injection, schedule: Q01DX009 (ip), vehicle: Klucel (hydroxypropylcellulose) (HPC)) is 96 % of control; the T/C (dose: 100.0 mg/kg/injection, schedule: Q01DX009 (ip), vehicle: Klucel (hydroxypropylcellulose) (HPC)) was 100 % of control; the T/C (dose: 200.0 mg/kg/injection, schedule: Q01DX009 (ip), vehicle: Klucel (hydroxypropylcellulose) (HPC)) is 100 % of control.
On to `CSc1nc(N)n2nc(C3CC3)cc2n1`, for which the T/C under setting [6] is 102 % of control, the T/C under setting [7] was 100 % of control and the T/C under setting [8] was 100 % of control.
